Test results: publication PMC7281973, “Biological and Computational Studies for Dual Cholinesterases Inhibitory Effect of Zerumbone” (Nutrients, 2020)
Where two headings read alike, the source gives them in different places.

Legend:
BChE [1] = target: T1, BChE (Equus caballus, UniProt P81908); settings: ref Xavier et al. 2015; cited from earlier work
mice = settings: cited from earlier work
BACE1 = target: T2, BACE1 (Homo sapiens, UniProt P56817); experiment: BACE1 FRET assay; assay type: biochemical; settings: mean ± SD, read-out: Inhibitory activity (%) against BACE1
T2 construct: purchased Thermo Fisher Scientific, Inc; host or cells: baculovirus expression system
T2 sequence (P56817 46-501): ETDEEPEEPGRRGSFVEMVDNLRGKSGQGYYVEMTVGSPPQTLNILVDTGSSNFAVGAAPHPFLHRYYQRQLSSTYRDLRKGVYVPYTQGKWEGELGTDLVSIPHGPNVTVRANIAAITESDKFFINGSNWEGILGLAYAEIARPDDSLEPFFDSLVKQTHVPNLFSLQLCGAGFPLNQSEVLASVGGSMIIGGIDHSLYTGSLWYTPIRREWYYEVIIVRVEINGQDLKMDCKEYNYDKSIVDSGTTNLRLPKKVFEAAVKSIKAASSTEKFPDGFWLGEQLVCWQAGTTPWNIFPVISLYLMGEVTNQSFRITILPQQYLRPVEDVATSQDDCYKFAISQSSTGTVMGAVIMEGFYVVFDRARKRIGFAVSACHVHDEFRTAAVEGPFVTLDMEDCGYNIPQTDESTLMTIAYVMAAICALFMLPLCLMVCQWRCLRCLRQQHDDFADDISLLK
Protocol: To evaluate BACE1 inhibitory activity, a BACE1 FRET assay kit with a recombinant baculovirus-expressed BACE1 and a Rh-[…]-Quencher substrate was used. Briefly, a mixture of BACE1 (1.0 U/mL), the substrate, and tested sample at a different concentration, was incubated for 60 min at 25 °C in well plates. The increase in fluorescence intensity was measured by a fluorescence microplate reader at excitation and emission wavelengths of 545/590 nm (FLX800, Winooski, VT, USA). The inhibitory ratio (%) was calculated using the formula: Inhibition (%) = [1 − (S − S0)/(C − C0)] × 100, where C is the absorbance of control after 60 min of incubation, C0 is the absorbance of control at time 0, S was the absorbance of samples after 60 min of incubation, and S0 was the absorbance of the samples at time 0.

AChE = AChE (Electrophorus electricus, UniProt O42275); settings: Dixon and Lineweaver-Burk plots
Chain of AChE (O42275 24-633): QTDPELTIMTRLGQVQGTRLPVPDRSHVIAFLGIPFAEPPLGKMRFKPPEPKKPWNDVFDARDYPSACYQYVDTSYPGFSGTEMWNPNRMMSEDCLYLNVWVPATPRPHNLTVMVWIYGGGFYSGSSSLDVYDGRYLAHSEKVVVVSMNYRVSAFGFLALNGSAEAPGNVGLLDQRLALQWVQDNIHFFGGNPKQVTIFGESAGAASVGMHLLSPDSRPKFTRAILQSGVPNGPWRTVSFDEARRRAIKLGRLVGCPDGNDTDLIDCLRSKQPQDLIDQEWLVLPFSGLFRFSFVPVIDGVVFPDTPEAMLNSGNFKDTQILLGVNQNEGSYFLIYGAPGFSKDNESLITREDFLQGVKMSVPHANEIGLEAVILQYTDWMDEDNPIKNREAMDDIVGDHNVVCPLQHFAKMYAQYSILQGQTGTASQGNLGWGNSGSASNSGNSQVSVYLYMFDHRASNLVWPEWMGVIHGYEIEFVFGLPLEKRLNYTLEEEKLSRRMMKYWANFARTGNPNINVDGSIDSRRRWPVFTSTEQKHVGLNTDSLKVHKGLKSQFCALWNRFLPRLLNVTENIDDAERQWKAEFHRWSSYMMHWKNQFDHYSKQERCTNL
Protocol: (§2) AChE or BChE (0.8 U/mL) was added to a mixture which contained 0.1 M sodium phosphate buffer, 5 mM DTNB, and a tested sample, and then incubated at 37 °C for 15 min.
(§3) The cholinesterases inhibition kinetics of zerumbone were analyzed using Dixon and Lineweaver-Burk plots. The dissociation constant (Ki) was determined by interpretation of the Dixon plot, and Vmax and Km were calculated by Lineweaver–Burk plots, using the initial velocities obtained over a substrate concentration range [11].

Elastase = target: T3, Elastase (Sus scrofa, UniProt P00772); experiment: Enzyme selectivity assay, elastase; assay type: biochemical; settings: mean ± SD, read-out: Inhibitory activity (%) against Elastase
T3 construct: purchased Sigma-Aldrich
T3 sequence (P00772 27-266): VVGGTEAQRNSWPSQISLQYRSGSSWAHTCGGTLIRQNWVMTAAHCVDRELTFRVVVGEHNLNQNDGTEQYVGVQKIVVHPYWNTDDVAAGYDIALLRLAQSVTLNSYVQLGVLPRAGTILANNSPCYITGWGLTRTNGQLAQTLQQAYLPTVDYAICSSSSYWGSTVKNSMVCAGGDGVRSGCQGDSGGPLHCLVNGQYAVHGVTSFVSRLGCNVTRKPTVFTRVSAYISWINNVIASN
Protocol: (§1) To determine enzyme selectivity, trypsin, chymotrypsin, and elastase were analyzed using […], and N-succinyl-Ala-Ala-Ala-pNA as substrates, respectively. The reaction mixture was incubated for 20 min and the absorbance was measured at 410 nm.

BChE [2] = target: T1, BChE; experiment: Anti-cholinesterase activity assay (modified Ellman method), BChE; assay type: biochemical
Protocol: as §2, §3

Trypsin = experiment: Enzyme selectivity assay, trypsin; assay type: biochemical; settings: mean ± SD
Protocol: as §1

Sprague–Dawley rats = settings: 1 and 10 mg/kg; cited from earlier work
Chymotrypsin = target: T4, Chymotrypsin (Bos taurus, UniProt P00766); experiment: Enzyme selectivity assay, chymotrypsin; assay type: biochemical; settings: mean ± SD, read-out: Inhibitory activity (%) against Chymotrypsin
T4 construct: purchased Sigma-Aldrich
Protocol: as §1

transgenic APP/PS1 mice = settings: 25 mg/kg; cited from earlier work
[3] = system: oxidative stress related inflammation and cancer cell proliferation; settings: cited from earlier work

T1 sequence (P81908 whole entry): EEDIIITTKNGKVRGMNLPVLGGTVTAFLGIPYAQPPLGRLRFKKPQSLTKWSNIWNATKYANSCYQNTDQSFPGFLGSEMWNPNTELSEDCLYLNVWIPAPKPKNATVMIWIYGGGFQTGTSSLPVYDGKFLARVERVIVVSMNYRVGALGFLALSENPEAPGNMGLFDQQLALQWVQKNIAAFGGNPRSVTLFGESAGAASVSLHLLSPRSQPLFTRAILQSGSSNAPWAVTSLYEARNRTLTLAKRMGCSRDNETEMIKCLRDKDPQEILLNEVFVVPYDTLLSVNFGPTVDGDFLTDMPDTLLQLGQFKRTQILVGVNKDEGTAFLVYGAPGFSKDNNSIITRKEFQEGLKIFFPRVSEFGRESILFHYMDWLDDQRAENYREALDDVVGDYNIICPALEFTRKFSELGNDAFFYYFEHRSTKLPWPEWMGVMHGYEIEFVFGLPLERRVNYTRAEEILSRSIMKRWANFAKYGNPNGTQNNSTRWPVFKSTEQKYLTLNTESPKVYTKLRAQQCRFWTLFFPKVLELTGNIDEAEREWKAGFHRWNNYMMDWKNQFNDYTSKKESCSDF

COc1ccc2c3c1O[C@H]1C[C@@H](O)C=C[C@@]31CCN(C)C2 [Galantamine]
BChE Inhibition Type (BChE [1]): Competitive ^5

C/C1=C\CC(C)(C)/C=C/C(=O)/C(C)=C/CC1 [Zerumbone]
Genotoxicity, organ weight, clinical chemistry, hematology, histopathology (mice; mouse, in vivo, ip): did not cause any genotoxicity
Acute toxicity in vivo (mice; previous in vivo studies): did not produce significant acute toxicity
inhibition at 50 µM (BACE1; 50 µM): 13.3 ± 1.2%
inhibition at 100 µM (BACE1; 100 µM): 16.1 ± 1.36%
AChE Inhibition Type (AChE): Non-competitive
inhibition at 50 µM (Elastase; 50 µM): 3.46 ± 1.85%
inhibition at 100 µM (Elastase; 100 µM): 3.57 ± 0.94%
BChE Inhibition Type (BChE [2]; Dixon and Lineweaver-Burk plots): Competitive
Fold more potent BChE suppression in comparison to galantamine (BChE [2]; versus positive control galantamine): approximately 3 fold
Inhibitory activity (%) against Trypsin (Trypsin; 50 µM): 5.00 ± 1.94%
Inhibitory activity (%) against Trypsin (Trypsin; 100 µM): 3.75 ± 2.03%
Effect on cognitive impairments and memory deficits related to scopolamine (Sprague–Dawley rats): attenuated cognitive impairments and memory deficits
inhibition at 50 µM (Chymotrypsin; 50 µM): 3.45 ± 0.3%
inhibition at 100 µM (Chymotrypsin; 100 µM): 2.71 ± 0.45%
Effect on behavioral impairments and Aβ deposition (transgenic APP/PS1 mice): alleviated behavioral impairments and Aβ deposition

C/C1=C\CC/C(C)=C/CC(C)(C)/C=C/C1 [α-Humulene]
Activity in oxidative stress related inflammation and cancer cell proliferation [3]: virtually inactive
